According to patent publication US20260315464A1, “COMPOSITIONS, METHODS, AND SYSTEMS FOR MODULATING SPLICING OF MSH3” (REVIR THERAPEUTICS, INC., priority 2023, published 2026):

System: MSH3
Test: QPCR assay for levels of MSH3 upon compound treatment in HEK293T or AD293 cells (fold-change of MSH3 transcript, EC50 of MSH3 downregulation; total MSH3 exons 13/14, exons 20/21; Table 8)
Type: cell-based
Conditions: Homo sapiens, fold-change of the MSH3 transcript, normalized to GAPDH; for mrna remaining at 1 µM: 1 μM compound; for mrna remaining at 10 µM: 10 μM compound
Method in brief: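 MSH3 mRNA was quantified by TaqMan qPCR covering exons 13/14, exons 20/21, exon 13/PE14A and exon 20/PE21A, with GAPDH as reference. Cells used were HEK293T or AD293, treated with compound at 1 μM and […].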

| Compound | mrna remaining at 1 µM [%] | mrna remaining at 10 µM [%] |
| --- | --- | --- |
| CN(c1ccc(N2Cc3c(F)cc(-c4cnn(CC(C)(C)O)n4)cc3C2=O)nn1)[C@H]1C[C@]2(C)CC[C@](C)(C1)N2 [Compound 634, 2-(6-(((1R,3s,5S)-1,5-dimethyl-8-azabicyclo[3.2.1]octan-3-yl)(methyl)amino)pyridazin-3-yl)-4-fluoro-6-(2-(2-hydroxy-2-methylpropyl)-2H-1,2,3-triazol-4-yl)isoindolin-1-one] | 63 | 76 |
| CC(C)(O)Cn1ncc(-c2cc(F)c3c(c2)C(=O)N(c2ccc(OC4CC(C)(C)NC(C)(C)C4)nn2)C3)n1 [Compound 635, 4-fluoro-6-(2-(2-hydroxy-2-methylpropyl)-2H-1,2,3-triazol-4-yl)-2-(6-((2,2,6,6-tetramethylpiperidin-4-yl)oxy)pyridazin-3-yl)isoindolin-1-one] | 54 | 117 |
| C[C@@H]1CN(c2ccc(N3Cc4c(F)cc(-c5nn(C)nc5Cl)cc4C3=O)nn2)C[C@H](C)N1 [Compound 636, 6-(5-chloro-2-methyl-2H-1,2,3-triazol-4-yl)-2-(6-((3S,5R)-3,5-dimethylpiperazin-1-yl)pyridazin-3-yl)-4-fluoroisoindolin-1-one] | 95 | 41 |
| Cn1nc(Cl)c(-c2cc(F)c3c(c2)C(=O)N(c2ccc(N4CCN[C@@H](C(C)(C)C)C4)nn2)C3)n1 [Compound 637, (S)-2-(6-(3-(tert-butyl)piperazin-1-yl)pyridazin-3-yl)-6-(5-chloro-2-methyl-2H-1,2,3-triazol-4-yl)-4-fluoroisoindolin-1-one] | 150 | 31 |
| CC(C)[C@@H]1CN(c2ccc(N3Cc4c(F)cc(-c5nn(C)nc5Cl)cc4C3=O)nn2)CCN1 [Compound 638, (R)-6-(5-chloro-2-methyl-2H-1,2,3-triazol-4-yl)-4-fluoro-2-(6-(3-isopropylpiperazin-1-yl)pyridazin-3-yl)isoindolin-1-one] | 112 | 22 |
| Cc1nn(C)nc1-c1cc(F)c2c(c1)C(=O)N(c1ccc(N3CCNC(C)CC3)nn1)C2 (stereo not shown) [Compound 639, 6-(2,5-dimethyl-2H-1,2,3-triazol-4-yl)-4-fluoro-2-(6-(5-methyl-1,4-diazepan-1-yl)pyridazin-3-yl)isoindolin-1-one] | 118 | 55 |
| Cc1nn(C)nc1-c1cc(F)c2c(c1)C(=O)N(c1ccc(N3CCN[C@H](C(C)C)C3)nn1)C2 [Compound 640, (R)-6-(2,5-dimethyl-2H-1,2,3-triazol-4-yl)-4-fluoro-2-(6-(3-isopropylpiperazin-1-yl)pyridazin-3-yl)isoindolin-1-one] | 99 | 25 |
| Cc1nn(C)nc1-c1cc(F)c2c(c1)C(=O)N(c1ccc(N3C[C@@H](C)N[C@@H](C)C3)nn1)C2 [Compound 641, 6-(2,5-dimethyl-2H-1,2,3-triazol-4-yl)-2-(6-((3S,5R)-3,5-dimethylpiperazin-1-yl)pyridazin-3-yl)-4-fluoroisoindolin-1-one] | 96 | 34 |
| Cn1nc(Cl)c(-c2cc(F)c3c(c2)C(=O)N(c2ccc(N4CCNC(C)(C)C4)nn2)C3)n1 [Compound 642, 6-(5-chloro-2-methyl-2H-1,2,3-triazol-4-yl)-2-(6-(3,3-dimethylpiperazin-1-yl)pyridazin-3-yl)-4-fluoroisoindolin-1-one] | 91 | 21 |
| Cc1nn(C)nc1-c1cc(F)c2c(c1)C(=O)N(c1ccc(N3CCNC(C)(C)C3)nn1)C2 [Compound 643, 6-(2,5-dimethyl-2H-1,2,3-triazol-4-yl)-2-(6-(3,3-dimethylpiperazin-1-yl)pyridazin-3-yl)-4-fluoroisoindolin-1-one] | 109 | 72 |
| Cn1nc(Cl)c(-c2cc(F)c3c(c2)C(=O)N(c2ccc(N4CC5(CCNC5)C4)nn2)C3)n1 [Compound 644, 2-(6-(2,6-diazaspiro[3.4]octan-2-yl)pyridazin-3-yl)-6-(5-chloro-2-methyl-2H-1,2,3-triazol-4-yl)-4-fluoroisoindolin-1-one] | 87 | 97 |
| Cn1nc(Cl)c(-c2cc(F)c3c(c2)C(=O)N(c2ccc(N4CC5CCC(C4)NC5)nn2)C3)n1 (stereo not shown) [Compound 645] | 87 | 104 |
| Cc1nn(C)nc1-c1cc(F)c2c(c1)C(=O)N(c1ccc(N3CCC4(CCNC4)C3)nn1)C2 (stereo not shown) [Compound 646, 2-(6-(2,7-diazaspiro[4.4]nonan-2-yl)pyridazin-3-yl)-6-(2,5-dimethyl-2H-1,2,3-triazol-4-yl)-4-fluoroisoindolin-1-one] | 115 | 76 |
| CN(C)C1CN(c2ccc(N3Cc4c(F)cc(-c5nn(C)nc5Cl)cc4C3=O)nn2)C1 [Compound 647, 6-(5-chloro-2-methyl-2H-1,2,3-triazol-4-yl)-2-(6-(3-(dimethylamino)azetidin-1-yl)pyridazin-3-yl)-4-fluoroisoindolin-1-one] | 119 | 86 |
| Cc1nn(C)nc1-c1cc(F)c2c(c1)C(=O)N(c1ccc(N3CC[C@@H](NC(C)(C)C)C3)nn1)C2 [Compound 648, (R)-2-(6-(3-(tert-butylamino)pyrrolidin-1-yl)pyridazin-3-yl)-6-(2,5-dimethyl-2H-1,2,3-triazol-4-yl)-4-fluoroisoindolin-1-one] | 113 | 87 |
| CC(C)(O)Cn1cc(-c2cc(F)c3c(c2)C(=O)N(c2ccc(OC4CC(C)(C)NC(C)(C)C4)nn2)C3)c(Cl)n1 [Compound 649, 6-(3-chloro-1-(2-hydroxy-2-methylpropyl)-1H-pyrazol-4-yl)-4-fluoro-2-(6-((2,2,6,6-tetramethylpiperidin-4-yl)oxy)pyridazin-3-yl)isoindolin-1-one] | 106 | 63 |
| Cc1nn(C)nc1-c1cc(F)c2c(c1)C(=O)N(c1ccc(N3CCNC4(CC4)C3)nn1)C2 [Compound 650, 2-(6-(4,7-diazaspiro[2.5]octan-7-yl)pyridazin-3-yl)-6-(2,5-dimethyl-2H-1,2,3-triazol-4-yl)-4-fluoroisoindolin-1-one] | 97 | 75 |
| Cc1nn(C)nc1-c1cc(F)c2c(c1)C(=O)N(c1ccc(N3CCC4CCC(C3)N4)nn1)C2 (stereo not shown) [Compound 651, 2-(6-(3,9-diazabicyclo[4.2.1]nonan-3-yl)pyridazin-3-yl)-6-(2,5-dimethyl-2H-1,2,3-triazol-4-yl)-4-fluoroisoindolin-1-one] | 96 | 60 |
| Cn1nc(Cl)c(-c2cc(F)c3c(c2)C(=O)N(c2ccc(N4CCC(NC5CC5)C4)nn2)C3)n1 (stereo not shown) [Compound 652, 6-(5-chloro-2-methyl-2H-1,2,3-triazol-4-yl)-2-(6-(3-(cyclopropylamino)pyrrolidin-1-yl)pyridazin-3-yl)-4-fluoroisoindolin-1-one] | 103 | 79 |
| Cn1nc(Cl)c(-c2cc(F)c3c(c2)C(=O)N(c2ccc(N4CC5CCC(C4)N5)nn2)C3)n1 [Compound 653, 2-(6-(3,8-diazabicyclo[3.2.1]octan-3-yl)pyridazin-3-yl)-6-(5-chloro-2-methyl-2H-1,2,3-triazol-4-yl)-4-fluoroisoindolin-1-one] | 93 | 27 |
